Measured values as given in PubChem BioAssay (NCI).
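Compound exposure: 48 hours, 5 concentrations, 96-well plates. At the GI50, growth is halved. Definition used: TGI = concentration required for complete inhibition of growth.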

Key:
Assay in all cases: growth of human tumour cells (NCI), 48 h
SN12C renal = system: SN12C renal
NCI-H23 lung = system: NCI-H23 lung
NCI-H460 lung = system: NCI-H460 lung
TK-10 renal = system: TK-10 renal
MCF7 breast = system: MCF7 breast
HS 578T breast = system: HS 578T breast
MDA-MB-231 breast = system: MDA-MB-231 breast
HCT-116 colon = system: HCT-116 colon
T-47D breast = system: T-47D breast
MDA-N = system: MDA-N

| Compound | TGI (SN12C renal) [µM] | TGI (NCI-H23 lung) [µM] | TGI (NCI-H460 lung) [µM] | TGI (TK-10 renal) [µM] | TGI (MCF7 breast) [µM] | TGI (HS 578T breast) [µM] | TGI (MDA-MB-231 breast) [µM] | TGI (HCT-116 colon) [µM] | TGI (T-47D breast) [µM] | TGI (MDA-N) [µM] | GI50 (NCI-H460 lung) [nM] | GI50 (HCT-116 colon) [nM] | GI50 (SN12C renal) [nM] | GI50 (MCF7 breast) [nM] | GI50 (NCI-H23 lung) [nM] | GI50 (HS 578T breast) [nM] | GI50 (TK-10 renal) [nM] | GI50 (MDA-MB-231 breast) [nM] | GI50 (T-47D breast) [nM] |
| --- | --- | --- | --- | --- | --- | --- | --- | --- | --- | --- | --- | --- | --- | --- | --- | --- | --- | --- | --- |
| O=C1Nc2cc(F)ccc2C1=O | > 100 | > 100 | > 100 | > 100 |  |  |  |  |  |  |  |  |  |  |  |  |  |  |  |
| NC(=O)C1CCN(Cc2c(Cl)c(Cl)c(CN3CCC(C(N)=O)CC3)c(Cl)c2Cl)CC1 | > 100 | > 100 | > 100 | > 100 | > 100 | > 100 | 96 | > 100 | > 100 |  |  |  |  |  |  |  |  |  |  |
| COC1(CC[C@H](C)COC2OC(CO)C(O)C(O)C2O)O[C@H]2C[C@H]3[C@@H]4CC=C5C[C@@H](OC6OC(CO)C(OC7OC(C)C(O)C(O)C7O)C(O)C6OC6OC(C)C(O)C(O)C6O)CC[C@]5(C)[C@H]4CC[C@]3(C)[C@H]2[C@@H]1C (some centres undefined) | > 100 | 19.2 | 15.1 | > 100 | 39.8 | 6.72 | 21.1 | 8.34 | 9.83 | 9.57 | 4390 | 2920 |  |  |  |  |  |  |  |
| CCOC(=O)c1csc(NC(=O)CCN2CCN(C)CC2)n1 |  | > 100 | > 100 | > 100 | > 100 | > 100 | > 100 |  | > 100 | > 100 |  |  |  |  |  |  |  |  |  |
| CCOC(=O)C(NC(=O)c1cccc(Cl)c1)(Nc1cccc(C)c1)C(F)(F)F (centres undefined) | 50.8 |  | 47.6 | > 100 | 39 | 49.4 | 41.6 | 33.4 | 54.5 | 38.8 |  |  |  |  |  |  |  |  |  |
| CCCn1cc2c3c(cccc31)C1C=C(C)CN(C)C1C2 (centres undefined) | 60.9 | 61.8 | 36.6 |  | 37.8 |  |  | 38.5 |  |  |  |  |  |  |  |  |  |  |  |
| COc1cc2c(c(OC)c1)[C@H](C)N(Cc1ccccc1)C(C)C2 (some centres undefined) | > 100 | > 100 | > 100 | > 100 | > 100 | > 100 | > 100 | > 100 | > 100 |  |  |  |  |  |  |  |  |  |  |
| c1cncc(CSc2nc3ccccc3nc2-c2cccs2)c1 | > 100 | > 100 | > 100 | > 100 |  |  |  | > 100 |  |  |  |  |  |  |  |  |  |  |  |
| CC(C)(C)c1ccnc(N=C2N=C(Nc3cc(C(C)(C)C)ccn3)c3ccccc32)c1 | > 100 | 94.6 | > 100 | 46.1 |  |  |  | 30.8 |  |  |  |  |  |  |  |  |  |  |  |
| N#C/C(C(=O)NCc1ccccc1)=C(/N)N1CCCC1 | > 100 | > 100 | > 100 | > 100 |  | > 100 | > 100 | > 100 | > 100 | > 100 |  |  |  |  |  |  |  |  |  |
| c1ccc2c(c1)cc1ccc3cccc4ccc2c1c34 | > 100 | > 100 | > 100 | > 100 |  | > 100 | > 100 | > 100 | > 100 | > 100 |  |  |  |  |  |  |  |  |  |
| C=C(C)[C@H]1CC23C(=O)[C@@](C)(C[C@H]2C1(C)C)C(=O)C(C(=O)C(C)C)=C3O | 32.9 | 43 | 45.3 | 53.3 | 32.6 | 58.1 | 32.2 |  | > 100 | 35.7 |  |  |  |  |  |  |  |  |  |
| CCCCNC(=O)Cn1c2ccc(Br)cc2c2nc3ccccc3nc21 | > 100 | > 100 |  | > 100 |  | > 100 | > 100 | > 100 | > 100 | > 100 |  |  |  |  |  |  |  |  |  |
| CC(C)(C)/C(O)=C\c1nc2cc(F)c(F)cc2[nH]c1=O |  | > 100 | > 100 | > 100 | > 100 | > 100 | 71.7 | > 100 | > 100 |  |  |  |  |  |  |  |  |  |  |
| CCOC(=O)c1csc(NC(=O)CCN2CCCC2)n1 |  | > 100 | > 100 | > 100 | > 100 |  | > 100 |  | > 100 | > 100 |  |  |  |  |  |  |  |  |  |
| CN(C)CCCNC(=O)N/N=C/c1ccccc1 | > 100 |  | > 100 | > 100 |  |  |  | > 100 |  |  |  |  |  |  |  |  |  |  |  |
| CCN(CC)CCCCNc1c2ccc(Cl)cc2nc2ccc(OC)cc12 | 2.61 | 2.38 |  | 4.59 | 1.69 | 4.76 | 2.11 | 1.94 | 4.54 |  | 287 | 301 | 438 | 294 | 524 | 1830 | 925 | 478 | 1220 |
| COc1cc(N=Nc2ccc(OC)c(S(=O)(=O)O)c2)c(C)cc1N=Nc1ccc(/C=C/c2ccc(N=[N+]([O-])c3ccc(/C=C/c4ccc(N=Nc5cc(C)c(N=Nc6ccc(OC)c(S(=O)(=O)O)c6)cc5OC)cc4S(=O)(=O)O)c(S(=O)(=O)O)c3)cc2S(=O)(=O)O)c(S(=O)(=O)O)c1 | > 100 | > 100 | > 100 |  | > 100 |  |  | > 100 |  |  |  |  |  |  |  |  |  |  |  |
| COc1ccc([C@]23CCC4(OCC(C)(C)CO4)[C@H]4CON(O[C@H](O[C@@H]5CCCCC5C(C)(C)c5ccccc5)C2)[C@@H]43)cc1OC (some centres undefined) | > 100 | > 100 | > 100 | > 100 | > 100 |  | > 100 | > 100 | > 100 | > 100 |  |  |  |  |  |  |  |  |  |
| CCN(CC)C(=S)N/N=C(/c1ccccc1)c1ccccn1 | 1.35 | > 43.3 | 0.385 | 29 | > 54 | > 100 |  | 13.6 |  | 26.1 |  |  |  |  |  |  |  |  |  |
| CC(=O)Oc1ccc2c(-c3ccccc3)c(Oc3ccc(Cl)cc3)c(=O)oc2c1 | 39.2 | 44.6 | 27.9 | 26.3 | 39.8 | 43.8 | 32.8 | 28 | 21.2 |  |  |  |  |  |  |  |  |  |  |
| O=c1c2c3c(sc2nc2n1N=C(c1ccc(Br)cc1)CS2)CCCC3 | > 100 | > 100 | > 100 | > 100 | > 100 |  | > 100 | > 100 | > 100 | > 100 |  |  |  |  |  |  |  |  |  |
| O=C1c2cc3c(cc2CC12Cc1ccc4c(c1C2=O)CCC4)CCC3 (centres undefined) |  | > 100 | > 100 | > 100 | > 100 | > 100 | > 100 | > 100 | > 100 | > 100 |  |  |  |  |  |  |  |  |  |
| O=c1c2ccc(Cl)cc2oc2c(CNc3ccc(S(=O)(=O)Nc4ncccn4)cc3)cccc12 | > 100 | > 100 |  | > 100 | > 100 |  | > 100 | > 100 | > 100 | > 100 |  |  |  |  |  |  |  |  |  |
